Reference: patent US20230406865A1, “CRYSTAL FORM OF FREE BASE OF INHIBITOR CONTAINING BICYCLIC RING DERIVATIVE AND PREPARATION METHOD AND APPLICATION OF CRYSTAL FORM” (SHANGHAI HANSOH BIOMEDICAL CO., LTD., priority 2020, published 2023)

Experiments:
[1] = tested on: xenograft tumor of human myeloid thyroid cancer cell TT; assay: Subcutaneous xenograft tumor model of human myeloid thyroid cancer cell TT; format: in vivo, BALB/c nude mice
Description: BALB/c nude mice, female, 6-8 weeks old, weighing 18-22 g, provided by Shanghai Lingchang Biotechnology Co., Ltd.
TT cells were cultured in vitro in a monolayer under the following conditions: F-12K medium with 20% heat-inactivated fetal bovine serum and 1% penicillin-streptomycin double antibodies at 37° C. and 5% CO2. Digestion with trypsin-EDTA was performed to treat the passage twice a week. When cells were in an exponential growth period, cells were collected, counted and inoculated.
TT cells were collected when they were full in a logarithmic growth period, ensuring vitality over 90%. 0.2 mL of cell suspension containing about 1×10^7 of TT cells (cells suspended in basic F-12K medium and added with 50% Matrigel) was inoculated subcutaneously into the right back […] of each mouse when the mean volume of the tumor reached about 150-200 mm^3 to start group administration.
1. The day of grouping was day 0 (DO). The interval of BID administration was 6-8 h/18-16 h. The first administration was given in the afternoon of day DO and the last administration was given in the morning of day D21.
2. Administration volume: 10 μL/g according to the body weight of nude mice.
Animal grouping: animals were weighed before administration and the tumor volume was measured. Animals were randomly grouped according to tumor volume (randomized grouping design) with 5 animals per group.
Experimental index: the diameter of tumor was measured by vernier caliper twice a week. The tumor volume was calculated by the formula: V=a×b^2/2, a and b denote the long and short diameter of the tumor, respectively. The tumor inhibition efficacy of the compounds was evaluated by TGI (%). TGI (%)=(1-(TVTreatment/Dx−TVTreatment/D1)/(TVControl/Dx−TVControl/D1))×100%.

[2] = target: T1, CCDC6-RET (Homo sapiens, UniProt P07949); assay: HTRF kinase activity inhibition, CCDC6-RET; format: biochemical; conditions: ATP at Km
T1 construct: purchased SignalChem R02-19BG-05; the other entry of the earlier key: CCDC6 (Q16204, Coiled-coil domain-containing protein 6)
T1 sequence (P07949 with tags, fused parts or gaps): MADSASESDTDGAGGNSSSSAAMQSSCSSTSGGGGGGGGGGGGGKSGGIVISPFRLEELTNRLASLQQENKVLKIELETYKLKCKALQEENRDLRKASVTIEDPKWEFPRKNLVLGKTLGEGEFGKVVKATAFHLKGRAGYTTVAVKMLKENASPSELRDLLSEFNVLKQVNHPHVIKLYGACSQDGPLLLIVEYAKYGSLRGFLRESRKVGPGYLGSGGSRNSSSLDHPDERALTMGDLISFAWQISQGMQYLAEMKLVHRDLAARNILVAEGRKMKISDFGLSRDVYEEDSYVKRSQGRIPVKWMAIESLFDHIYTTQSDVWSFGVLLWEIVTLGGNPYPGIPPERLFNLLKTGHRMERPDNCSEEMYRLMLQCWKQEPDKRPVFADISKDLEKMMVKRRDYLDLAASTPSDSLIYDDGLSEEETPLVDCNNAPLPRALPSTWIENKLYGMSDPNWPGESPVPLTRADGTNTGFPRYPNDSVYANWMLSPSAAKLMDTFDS
Source text: 2.2 Experimental Reagents: • RET enzyme was purchased from Carna Company, and the article number was 08-159; • RET M918T enzyme was purchased from Carna Company, and the article number was 08-508; • KIF5B-RET was purchased from SignalChem Company, the article number was R02-19FG-05; • CCDC6-RET was purchased from SignalChem Company, the article number was R02-19BG-05; • RET V804M enzyme was purchased from Thermofisher Company, and the article number was PV6223; • RET V804L enzyme was purchased from Thermofisher Company, and the article number was PV4397; • HTRF KinEASE-TK kit was purchased from Cisbio Company, and the article number was 62TK0PEC; • ATP was purchased from Thermofisher Company, and the article number was PV3227; • 384-well plate was purchased from PerkinElmer Company, and the article number was 6007290.
In this experiment, a homogeneous time-resolved fluorescence (HTRF) method was used for the detection of compounds on RET kinase activity.

[3] = tested on: phosphorylation of ERK, a downstream signal factor of TT cells; assay: Inhibition of ERK phosphorylation in TT cells (Western Blot); format: cell-based, human; conditions: for inhibition of ERK phosphorylation: 2 hours, TT cells; for inhibition of phosphorylation level of ERK in TT cells: 3.7-300 nM, 2 hours at 37° C., Western Blot
Source text: 2.2 Experimental Reagents: • pERK antibody was purchased from Cell Signaling Technology Company, the article number was 43705; • Total ERK antibody was purchased from Cell Signaling Technology Company, the article number was 4696S; • The internal reference GAPDH was purchased from Cell Signaling Technology Company, the article number was 51745; • The fluorescent secondary antibodies were purchased from LI-COR Company, the article numbers were P/N 925-68071 and P/N 926-32210.
In this experiment, the inhibitory effect of compounds on the phosphorylation level of ERK, a downstream signaling factor in TT cells was measured by Western Blot method. When TT cells were cultured to the appropriate fusion level, the cells were collected and adjusted to the appropriate cell concentration using complete medium, the cell suspension was spread in a 24-well plate, 1 mL per well, and placed in the wall of a 37° C., 5% CO2 incubator overnight, and compound dilutions of different concentrations (3.7 nM, 11.1 nM, 33.3 nM, 100 nM, 300 nM) were added at 37° C. and acted for 2 hours; the cell supernatant was aspirated, washed one time with PBS, and the proteins were collected with lysate; after protein denaturation, Western blot experiments were performed: performing protein electrophoresis at 120V for approximately 75 minutes, followed by 45 minutes of transfer to PVDF membranes at 10V with a semi-dry transfer instrument, enclosing at 5% BSA for 1 hour at room temperature, and then PVDF membranes were cut into strips of appropriate size and incubated with prepared antibody dilutions overnight at 4° C. and washed 6 times with TBST, followed by incubating with goat anti-mouse secondary antibody and goat anti-rabbit secondary antibody for 1 hour at room temperature, and the membrane was washed 6 times with TBST for imaging in the Biorad ChemiDoc™ MP Imaging System.
The inhibitory effect of compounds on ERK phosphorylation levels in TT cells at different concentrations was determined by detecting protein bands.

IC50 [2] [nM]	Structure (SMILES)	Tumor volume (mean ± SEM) d 0 ([1]; 30 mg/kg oral BID) [mm^3]	Tumor inhibition rate/TGI d 22 ([1]; 30 mg/kg oral BID) [%]	Tumor volume (mean ± SEM) d 22 ([1]; 30 mg/kg oral BID) [mm^3]	inhibition of ERK phosphorylation ([3]; 3.7 nM)	inhibition of ERK phosphorylation ([3]; 11.1 nM)	inhibition of ERK phosphorylation ([3]; 33.3 nM)	inhibition of ERK phosphorylation ([3]; 100 nM)	inhibition of ERK phosphorylation ([3]; 300 nM)	inhibition of phosphorylation level of ERK in TT cells [3]	Tumor volume (mean ± SEM) d 0 ([1]; 10 mg/kg oral BID) [mm^3]	Tumor inhibition rate/TGI d 22 ([1]; 10 mg/kg oral BID) [%]	Tumor volume (mean ± SEM) d 22 ([1]; 10 mg/kg oral BID) [mm^3]
–	COc1ncc(CN2C3CC2CN(c2ccc(-c4cc(C#CC(C)(C)O)cn5ncc(C#N)c45)cn2)C3)cc1F [Embodiment 18, 4-(6-(6-((5-Fluoro-6-methoxypyridin-3-yl)methyl)-3,6-diazabicyclo[3.1.1]heptan-3-yl)pyridin-3-yl)-6-(3-hydroxy-3-methylbut-1-yn-1-yl)pyrazolo[1,5-a]pyridine-3-carbonitrile]	199.73 ± 24.07	99.64	203.56 ± 31.74	–	–	–	–	–	–	–	–	–
0.85	C#C[C@@](C)(O)COc1cc(-c2ccc(N3CC4CC(C3)N4Cc3ccc(OC)nc3)nc2)c2c(C#N)cnn2c1 [Embodiment 63, 6-(((R)-2-hydroxy-2-methylbut-3-yn-1-yl)oxy)-4-(6-(6-((6-methoxypyridin-3-yl)methyl)-3,6-diazabicyclo[3.1.1]heptan-3-yl)pyridin-3-yl)pyrazolo[1,5-a]pyridine-3-carbonitrile]	–	–	–	about half	almost completely inhibited	almost completely inhibited	almost completely inhibited	almost completely inhibited	significantly inhibit	–	–	–
1.74	C#C[C@](C)(O)COc1cc(-c2ccc(N3CC4CC(C3)N4Cc3ccc(OC)nc3)nc2)c2c(C#N)cnn2c1 [Embodiment 64, 6-(((S)-2-hydroxy-2-methylbut-3-yn-1-yl)oxy)-4-(6-(6-((6-methoxypyridin-3-yl)methyl)-3,6-diazabicyclo[3.1.1]heptan-3-yl)pyridin-3-yl)pyrazolo[1,5-a]pyridine-3-carbonitrile]	–	–	–	the inhibition level was weaker	half	the degree of inhibition was reduced	completely inhibit	completely inhibit	significantly inhibit	–	–	–

Structure (SMILES)	IC50 [2] [nM]	Tumor volume (mean ± SEM) d 0 ([1]; 30 mg/kg oral BID) [mm^3]	Tumor inhibition rate/TGI d 22 ([1]; 30 mg/kg oral BID) [%]	Tumor volume (mean ± SEM) d 22 ([1]; 30 mg/kg oral BID) [mm^3]	inhibition of ERK phosphorylation ([3]; 3.7 nM)	inhibition of ERK phosphorylation ([3]; 11.1 nM)	inhibition of ERK phosphorylation ([3]; 33.3 nM)	inhibition of ERK phosphorylation ([3]; 100 nM)	inhibition of ERK phosphorylation ([3]; 300 nM)	inhibition of phosphorylation level of ERK in TT cells [3]	Tumor volume (mean ± SEM) d 0 ([1]; 10 mg/kg oral BID) [mm^3]	Tumor inhibition rate/TGI d 22 ([1]; 10 mg/kg oral BID) [%]	Tumor volume (mean ± SEM) d 22 ([1]; 10 mg/kg oral BID) [mm^3]
COc1ccc(CN2C3CC2CN(c2ccc(-c4cc(N5CC(C)(C#N)C5)cn5ncc(C#N)c45)cn2)C3)cn1 [Embodiment 77, 6-(3-Cyano-3-methylazetidin-1-yl)-4-(6-(6-((6-methoxypyridin-3-yl)methyl)-3,6-diazabicyclo[3.1.1]heptan-3-yl)pyridin-3-yl)pyrazolo[1,5-a]pyridine-3-carbonitrile]	0.98	–	–	–	–	–	–	–	–	–	205.23 ± 16.57	129.77	144.14 ± 8.95
